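Method: 48-hour compound exposure of cells in 96-well plates, five concentrations, linear interpolation of endpoints. TGI denotes the concentration required for complete inhibition of growth.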
Columns and labels:
Experiment in all cases: NCI anticancer screen, dose series, 48 h
[1] = system: 786-0 renal
[2] = system: A498 renal
[3] = system: A549 NSCLC
[4] = system: ACHN renal
[5] = system: BT-549 breast
[6] = system: CAKI-1 renal
[7] = system: COLO 205 colon
[8] = system: DU-145 prostate
[9] = system: EKVX NSCLC
[10] = system: HCC-2998 colon
[11] = system: HCT-116 colon
[12] = system: HCT-15 colon
[13] = system: HL-60(TB) leukemia
[14] = system: HOP-62 NSCLC
[15] = system: HS 578T breast
[16] = system: HT29 colon
[17] = system: IGROV1 ovarian
[18] = system: K-562 leukemia
[19] = system: KM12 colon
[20] = system: LOX IMVI melanoma
[21] = system: M14 melanoma
[22] = system: MALME-3M melanoma
[23] = system: MCF7 breast
[24] = system: MDA-MB-231 breast
[25] = system: MDA-MB-435
[26] = system: MDA-N
[27] = system: MOLT-4 leukemia
[28] = system: NCI-H226 lung
[29] = system: NCI-H23 lung
[30] = system: NCI-H522 lung
[31] = system: NCI/ADR-RES ovarian
[32] = system: OVCAR-3 ovarian
[33] = system: OVCAR-4 ovarian
[34] = system: OVCAR-5 ovarian
[35] = system: OVCAR-8 ovarian
[36] = system: PC-3 prostate
[37] = system: RPMI-8226 leukemia
[38] = system: RXF 393 renal
[39] = system: SF-268 CNS
[40] = system: SF-295 CNS
[41] = system: SF-539 CNS
[42] = system: SK-MEL-2 melanoma
[43] = system: SK-MEL-28 melanoma
[44] = system: SK-MEL-5 melanoma
[45] = system: SK-OV-3 ovarian
[46] = system: SN12C renal
[47] = system: SNB-19 CNS
[48] = system: SNB-75 CNS
[49] = system: SW-620 colon
[50] = system: T-47D breast
[51] = system: TK-10 renal
[52] = system: U251 CNS
[53] = system: UACC-257 melanoma
[54] = system: UACC-62 melanoma
[55] = system: UO-31 renal
[56] = system: HOP-92 NSCLC
[57] = system: NCI-H460 lung

Measured: TGI

N#Cc1n[nH]n(-c2ccccc2)c1=O
not listed: [56] | [57]
> 100 µM: all other assays above

O=c1[nH]nc(Cc2ccc(Cl)cc2)n1CCO
not listed: [14] | [38] | [48]
> 100 µM: all other assays above

From PubChem BioAssay (NCI)
